# Test results: PubChem BioAssay AID1963960 (Molecular Pharmacology Branch, DTP, NCI, 2024)
# System: MDA-MB-468 spheroids with HUVEC/MSC, viability
# Test: Anticancer human tumor MDA-MB-468 cell line growth inhibition [PI3K];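 note: spheroids exposed to agents for seven days before readout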;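 for viability, T/C: 100% = DMSO vehicle control viability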
# Settings: for IC50: curve of first compound; for viability, T/C: stronger effect = lower value
# Method in brief: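 Multi-cell spheroids combine tumor cells with HUVEC and human MSCs, treated with targeted agents alone or with inavolisib, alpelisib, duvelisib or copanlisib. Concentrations fall in half-log steps from at or near clinical Cmax, or from 10 microM where Cmax is unknown; viability read-out.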
# [1] = second compound 0.0316 µM, first compound 0.0316 µM
# [2] = second compound 0.0316 µM, first compound 0.1 µM
# [3] = second compound 0.0316 µM, first compound 0.316 µM
# [4] = second compound 0.0316 µM, first compound 1 µM
# [5] = second compound 0.1 µM, first compound 0.0316 µM
# [6] = second compound 0.1 µM, first compound 0.1 µM
# [7] = second compound 0.1 µM, first compound 0.316 µM
# [8] = second compound 0.1 µM, first compound 1 µM
# [9] = second compound 0.316 µM, first compound 0.0316 µM
# [10] = second compound 0.316 µM, first compound 0.1 µM
# [11] = second compound 0.316 µM, first compound 0.316 µM
# [12] = second compound 0.316 µM, first compound 1 µM
# [13] = second compound 1 µM, first compound 0.0316 µM
# [14] = second compound 1 µM, first compound 0.1 µM
# [15] = second compound 1 µM, first compound 0.316 µM
# [16] = second compound 1 µM, first compound 1 µM
# [17] = second compound 3.16 µM, first compound 0.0316 µM
# [18] = second compound 3.16 µM, first compound 0.1 µM
# [19] = second compound 3.16 µM, first compound 0.316 µM
# [20] = second compound 3.16 µM, first compound 1 µM
# [21] = second compound 10 µM, first compound 0.0316 µM
# [22] = second compound 10 µM, first compound 0.1 µM
# [23] = second compound 10 µM, first compound 0.316 µM
# [24] = second compound 10 µM, first compound 1 µM
# [25] = second compound 0.0316 µM, first compound 3.16 µM
# [26] = second compound 0.0316 µM, first compound 10 µM
# [27] = second compound 0.1 µM, first compound 3.16 µM
# [28] = second compound 0.1 µM, first compound 10 µM
# [29] = second compound 0.316 µM, first compound 3.16 µM
# [30] = second compound 0.316 µM, first compound 10 µM
# [31] = second compound 1 µM, first compound 3.16 µM
# [32] = second compound 1 µM, first compound 10 µM
# [33] = second compound 3.16 µM, first compound 3.16 µM
# [34] = second compound 3.16 µM, first compound 10 µM
# [35] = second compound 10 µM, first compound 3.16 µM
# [36] = second compound 10 µM, first compound 10 µM
smiles,measurement,setting,value
CCN1CCN(Cc2ccc(Nc3ncc(F)c(-c4cc(F)c5nc(C)n(C(C)C)c5c4)n3)nc2)CC1 + Cc1nc(NC(=O)N2CCCC2C(N)=O)sc1-c1ccnc(C(C)(C)C(F)(F)F)c1,IC50,second compound 0.0316 µM,> 1 µM
same,IC50,second compound 0.1 µM,> 1 µM
same,IC50,second compound 0.316 µM,> 1 µM
same,IC50,second compound 1 µM,0.798 µM
same,IC50,second compound 3.16 µM,0.191 µM
same,IC50,second compound 10 µM,< 0.00316 µM
same,"viability, T/C","second compound 0.0316 µM, first compound 0.00316 µM",97.9%
same,"viability, T/C","second compound 0.0316 µM, first compound 0.01 µM",90%
same,"viability, T/C",[1],83.8%
same,"viability, T/C",[2],113%
same,"viability, T/C",[3],90.8%
same,"viability, T/C",[4],59.9%
same,"viability, T/C","second compound 0.1 µM, first compound 0.00316 µM",98.3%
same,"viability, T/C","second compound 0.1 µM, first compound 0.01 µM",85.9%
same,"viability, T/C",[5],89.1%
same,"viability, T/C",[6],104%
same,"viability, T/C",[7],97.9%
same,"viability, T/C",[8],55.3%
same,"viability, T/C","second compound 0.316 µM, first compound 0.00316 µM",92.4%
same,"viability, T/C","second compound 0.316 µM, first compound 0.01 µM",94%
same,"viability, T/C",[9],93.2%
same,"viability, T/C",[10],81.3%
same,"viability, T/C",[11],80.9%
same,"viability, T/C",[12],52.7%
same,"viability, T/C","second compound 1 µM, first compound 0.00316 µM",94.9%
same,"viability, T/C","second compound 1 µM, first compound 0.01 µM",84.8%
same,"viability, T/C",[13],77%
same,"viability, T/C",[14],76.9%
same,"viability, T/C",[15],62.1%
same,"viability, T/C",[16],46.2%
same,"viability, T/C","second compound 3.16 µM, first compound 0.00316 µM",68.7%
same,"viability, T/C","second compound 3.16 µM, first compound 0.01 µM",58.7%
same,"viability, T/C",[17],61.1%
same,"viability, T/C",[18],64.8%
same,"viability, T/C",[19],37.7%
same,"viability, T/C",[20],41.6%
same,"viability, T/C","second compound 10 µM, first compound 0.00316 µM",39.1%
same,"viability, T/C","second compound 10 µM, first compound 0.01 µM",27.3%
same,"viability, T/C",[21],29.8%
same,"viability, T/C",[22],25.3%
same,"viability, T/C",[23],22%
same,"viability, T/C",[24],23.5%
Cn1ncc(Cl)c1-c1cc(C(=O)NC(CN)Cc2cccc(F)c2)sc1Cl (stereo unspecified) + Cc1nc(NC(=O)N2CCCC2C(N)=O)sc1-c1ccnc(C(C)(C)C(F)(F)F)c1,IC50,second compound 0.0316 µM,0.327 µM
same,IC50,second compound 0.1 µM,0.272 µM
same,IC50,second compound 0.316 µM,0.289 µM
same,IC50,second compound 1 µM,0.221 µM
same,IC50,second compound 3.16 µM,0.0895 µM
same,IC50,second compound 10 µM,< 0.0316 µM
same,"viability, T/C",[1],84.6%
same,"viability, T/C",[2],78.8%
same,"viability, T/C",[3],37.8%
same,"viability, T/C",[4],33.1%
same,"viability, T/C",[25],29.8%
same,"viability, T/C",[26],0.69%
same,"viability, T/C",[5],78.1%
same,"viability, T/C",[6],62.4%
same,"viability, T/C",[7],41.2%
same,"viability, T/C",[8],36%
same,"viability, T/C",[27],27.5%
same,"viability, T/C",[28],1.98%
same,"viability, T/C",[9],80.2%
same,"viability, T/C",[10],76.9%
same,"viability, T/C",[11],40.1%
same,"viability, T/C",[12],30.1%
same,"viability, T/C",[29],19.7%
same,"viability, T/C",[30],3.34%
same,"viability, T/C",[13],91.3%
same,"viability, T/C",[14],68%
same,"viability, T/C",[15],39.3%
same,"viability, T/C",[16],26.1%
same,"viability, T/C",[31],19.3%
same,"viability, T/C",[32],4.09%
same,"viability, T/C",[17],66.7%
same,"viability, T/C",[18],43.6%
same,"viability, T/C",[19],37.4%
same,"viability, T/C",[20],20.8%
same,"viability, T/C",[33],14.1%
same,"viability, T/C",[34],2.32%
same,"viability, T/C",[21],38.3%
same,"viability, T/C",[22],20.8%
same,"viability, T/C",[23],20.6%
same,"viability, T/C",[24],14.1%
same,"viability, T/C",[35],7.72%
same,"viability, T/C",[36],0.4%
Cn1nccc1Nc1nccc(-c2ccn(C(CO)c3ccc(Cl)c(F)c3)c(=O)c2)n1 (stereo unspecified) + Cc1nc(NC(=O)N2CCCC2C(N)=O)sc1-c1ccnc(C(C)(C)C(F)(F)F)c1,IC50,second compound 0.0316 µM,> 10 µM
same,IC50,second compound 0.1 µM,> 10 µM
same,IC50,second compound 0.316 µM,> 10 µM
same,IC50,second compound 1 µM,> 10 µM
same,IC50,second compound 3.16 µM,1.6 µM
same,IC50,second compound 10 µM,< 0.0316 µM
same,"viability, T/C",[1],88.7%
same,"viability, T/C",[2],85.4%
same,"viability, T/C",[3],84%
same,"viability, T/C",[4],116%
same,"viability, T/C",[25],107%
same,"viability, T/C",[26],63.3%
same,"viability, T/C",[5],92.2%
same,"viability, T/C",[6],94.9%
same,"viability, T/C",[7],81.7%
same,"viability, T/C",[8],93.3%
same,"viability, T/C",[27],113%
same,"viability, T/C",[28],53.8%
same,"viability, T/C",[9],103%
same,"viability, T/C",[10],112%
same,"viability, T/C",[11],95.9%
same,"viability, T/C",[12],109%
same,"viability, T/C",[29],61.1%
same,"viability, T/C",[30],63.8%
same,"viability, T/C",[13],81.3%
same,"viability, T/C",[14],75.6%
same,"viability, T/C",[15],80.4%
same,"viability, T/C",[16],67.3%
same,"viability, T/C",[31],62.9%
same,"viability, T/C",[32],53.9%
same,"viability, T/C",[17],82.3%
same,"viability, T/C",[18],64.1%
same,"viability, T/C",[19],63.4%
same,"viability, T/C",[20],59.7%
same,"viability, T/C",[33],42.3%
same,"viability, T/C",[34],32.3%
same,"viability, T/C",[21],39.6%
same,"viability, T/C",[22],24.8%
same,"viability, T/C",[23],29.6%
same,"viability, T/C",[24],20.2%
same,"viability, T/C",[35],17.6%
same,"viability, T/C",[36],14.5%
